Reference: patent publication US11299515B2, “Optimized peptides for targeting human nerves and their use in image guided surgery, diagnostics and therapeutic” (The Regents of the University of California, priority 2017, dated 2022)

Legend:
[1] = Fluorescent plate reader assay of quenching by food dyes
Excerpt: FIG. 21: Food dyes efficiently quench FAM-NP41 bladder fluorescence. A fluorescent plate reader assay was used to show dose dependent quenching of FAM-NP41 fluorescence. Erythrosine extra bluish (Santa Cruz Biotechnology, Inc.) was the most efficient quencher with >80% quenching at 2.5 times dye to fluorescein ratio and >95% quenching at 5× dye to fluorescein ratio (A). Other food dyes tested included Allura Red and Sunset Yellow. To test for quenching in-vivo we administered, by direct iv injection, 50 mg/kg MW 879.76 (^˜1.5 μmoles per 25 gm mouse) to mice that had been injected with 150 nmoles of FAM-NP41 2 hours prior. This represents approximately a 10× dye to FAM-NP41 dose. Some bladder fluorescence remained after imaging so additional dye (30 μl, 10 mM Erythrosin extra bluish) was injected directly into the bladder. Images are shown for mouse bladder with no dye quencher (B) and addition of Erythrosine extra bluish (intravenous and intra bladder) (C) with bladder fluorescence quench to near background level. Dye would likely not be needed if this method was used for human patients as bladder catheterization in patients could be started as FAM-NP41 is administered so bladder fluorescence could be washed out.

human sural nerve = test: Topical application of FAM-labelled peptides on human nerve sections; type: binding; settings: for normalized average signal intensity (normalized to FAM-HNP401): 100 μM FAM labelled, human sural nerve sections; for binding / contrast among peptides and controls screened on human nerve: 100 μM topical, sural nerve and temporalis muscle
Excerpt: To determine the affinity of phage selected peptides for binding to human nerve they were chemically synthesized by solid-phase synthesis and labeled with fluorescein at the C-terminus via a GGC linker. Peptides were topically applied to sectioned human sural nerve and human temporalis muscle to determine nerve to muscle contrast. […] To confirm binding and contrast of HNP401 for additional nerve types binding was compared in nerve and muscle with both HNP401 and NP41 on facial brachial plexus nerve (FIG. 9). […] FAM-HNP401 was additionally tested topically on ex-vivo tissue for labeling of mouse facial nerve with surrounding muscle (FIG. 10, J-M).
To test the affinity of selected phage display peptides for binding to human nerves, they were chemically synthesized by solid-phase synthesis and labeled with fluorescein at the C-terminus. Peptides were topically applied to sections of surgically harvested human sural nerve and temporalis muscle to determine nerve to muscle contrast for selected peptides and controls (FIG. 23). […] To quantify differential binding to nerve versus muscle, fluorescence signal intensity was measured for ROIs from the perineurium of select nerves and human temporalis muscle.
Human sural nerve, antebrachial nerve and laryngeal nerve and temporalis muscle were obtained under IRB protocol number 130837 for Dr. Quyen Nguyen. Human peripheral nerves (typically sural) were obtained from patients undergoing nerve resection procedures. Human nerves from prostate gland of two patients were acquired under Moores Cancer Centre Biorepository IRB protocol number 090401. Tissue were sectioned and mounted on glass slides or Cryojane tape. Tissue sections were placed in a humidifier chamber for 30 min before application of the peptide solution. Peptides were diluted to appropriate concentration in 0.5×HBSS prior to topical application. 50 μl of peptide solution of with known concentration (1 μM to 375 μM) were applied to 10 μm nerve sections on tape or slides and incubated for 30 minutes in a humidifier chamber. After incubation with peptide nerve sections were washed with twice with 0.5×HBSS and once with 1×PBS. A cover-slip was applied and slides were imaged immediately on either a Zeiss Lumar dissecting scope of Nikon A1 confocal microscope. For confocal imaging tissue sections of 10 μm thickness were imaged with 488 nm laser excitation 515 (25) and a 10× air objective and a […] size. For immunohistochemistry the confocal Images were acquired with a 20× air objective at 0.4 μm/pixel.
Image J was used to analyze and compare images acquired using the confocal microscope and the Lumar dissecting scope. For each experimental set where probes were compared, we kept the acquisition parameters identical so as to directly compare the data obtained. […] All raw image files for a given experimental cohort were loaded at the same time into Image J as 16-bit tiff images. We then levelled the image for tissue treated with FAM-HNP401. Once these levels were set, the settings are propagated to all images in one step using Image J. The brightest image is set as the benchmark for all other images in the cohort to avoid saturating when the leveling is propagated.

sciatic nerve [2] = type: in vivo, mice
Procedure: Either 150 or 450 nmoles of fluorescein labeled synthetic peptides were injected intravenously into mice. After a 2 hour waiting period for washout of nonspecific binding, mice were anesthetized and skin incisions were made over the dorsal surface of the hind legs to expose the sciatic nerve. Brightfield and fluorescent images were obtained with a dissecting microscope using Metamorph software (FIG. 1). Quantitation of fluorescence of nerves and adjacent non-nerve tissue was performed with Image J (FIG. 2). Peptides were also topically applied to human nerve sections. Nerves were freshly frozen in OTC prior to sectioning. Peptides were topically applied at concentration at 300 uM with images being shown for HNP401, HNP402, HNP404 and previous reported nerve binding peptides NP41 (FIG. 3)). Also shown are images for variants HNP301 ([…]) and NP124. NP713 was also tested and has not reported in a publication. NP713, is a derivative of NP41 with sequence […] that was enriched after 7 rounds of selection against mouse tissue, and was also found after 4 rounds of selection against human tissue. […] All D-amino acid controls for NP-41 and NP713 and non peptide conjugated carboxyfluorescein, are also shown. […] HNP401 was then tested for labeling of rat sciatic and rat prostate cavernosal nerve in-vivo. […] FIGS. 6 and 7 show in-vivo labeling of rat prostate cavernosal nerve with comparison to white light visualization.
Following anesthesia with intra-peritoneal injection of ketamine (80 mg/kg) and midazolam (40 mg/kg), FAM-NP41 or its variants were administered into mice retro-orbitally. After a washout period of 2-4 hours, the animals were anesthetized with ketamine (50 mg/ml) and xylazine (20 mg/ml). The bladder and prostate were exposed through a midline abdominal incision. The autonomic nerve along the cavernosal vessel in the prostate was imaged and recorded using a custom-made surgical imaging system. This system is a modified from Olympus MVX10 scope capable of hi-resolution fluorescence, RGB reflectance and realtime overlay with zoom from 0.6 to 5.7 cm field of view. Image) was used for quantitative analysis of nerve contrast for each peptide dye conjugate tested. Images of autonomic nerve in prostate were selected from the recorded files and magnified 300-400% prior to selection of ROI and measurement. Nerves and adjacent non-nerve tissues ROIs were hand-selected using polygonal selection tool at the same location from both of reflectance and fluorescence images. The mean and standard deviation of the pixel intensities within the selected areas were compared for nerves (mean=In, SD=σn) and adjacent background tissue (mean=Ib, SD=σb). Nerve to non-nerve contrast was calculated after background subtraction with formula |In−Ib|/(σn^2+σm^2)^0.5. For imaging the nerves in the prostate gland of male rats peptide dye conjugate were injected retro-orbitally. FAM-HNP401 was injected at a concentration of 13 mgs/kg followed by imaging after 15 minutes or alternatively a dose of 52 mgs/kg was used with imaging after 3 hours. Live animal surgery was performed under a ketamine-xylazine cocktail according to IACUC protocol. Sterile technique was used to expose the prostate; bladder was drained with a small syringe and sutured. The surgical field was washed with sterile saline prior to imaging. Mann-Whitney test was used to analyze data for both mice and rats to compare nerve intensity and nerve to non-nerve contrast between white light reflectance and fluorescence.

[3] = test system: autonomic nerves within the prostate; test: In-vivo imaging of autonomic nerves within the prostate of mice; settings: rodent models
Procedure: To visualize the autonomic nerves within the prostate of mice, NP41 peptide conjugated to fluorescein (FAM-NP41) was injected intravenously followed by imaging of prostate and surrounding tissue after surgical resection. Strong fluorescence from dye that rapidly accumulates in the bladder hindered visualization of the nerves within the prostate. To enhance visualization the bladder was surgically drained of urine and sutured prior to imaging. The urethra, an anatomically distinct structure, is never emptied of urine as the mice are alive for the duration of the experiment, resulting in a continuous passage of urine carrying metabolized peptide-dye to the bladder […]. […] To quantify nerve detection a total of 10 mice were injected with 600 nmoles FAM-NP41 and signal intensity was measured for nerve versus adjacent non-nerve tissue using both fluorescence and white light reflectance. Values to the right of the line indicate that there is improved visualization with fluorescence compared to reflected light. […]
Following anesthesia with intra-peritoneal injection of ketamine (80 mg/kg) and midazolam (40 mg/kg), FAM-NP41 or its variants were administered into mice retro-orbitally. […] The autonomic nerve along the cavernosal vessel in the prostate was imaged and recorded using a custom-made surgical imaging system. […]

sciatic nerve [4] = settings: live mice, reference [22]; cited from earlier work
[5] = test system: autonomic nerve within the prostate; test: In-vivo imaging of autonomic nerve within the prostate of rats; settings: rat prostate cavernosal nerve, live rats

What does the source list for O.O=C([O-])c1ccccc1-c1c2cc(I)c(=O)c(I)c-2oc2c(I)c([O-])c(I)cc12.[Na+].[Na+] [Erythrosine extra bluish]?
quenching of FAM-NP41 fluorescence ([1]; 2.5 times dye to fluorescein ratio): > 80%; quenching of FAM-NP41 fluorescence ([1]; 5× dye to fluorescein ratio): > 95%

For “EEPYYVVKKSS [HNP401-N-6, tested FAM labelled]”, which “normalized average signal intensity (normalized to FAM-HNP401)” value (“normalized average signal intensity” below) (human sural nerve) is on record?
Its value is 1.0±0.34.

For NTQTLAKAPEHT [NP41, reference compound], which “contrast (nerve fluorescent intensity/muscle fluorescent intensity)” value (sciatic nerve [2]; 450 nmols, FAM-labelled peptide, living wild type mice, FIG. 2) is on record?
The value was 6.7 fold.

What about the washout from nerve (sciatic nerve [2]; mouse, in vivo) of the same molecule?
Its washout from nerve is “little remaining signal after 24 hours”.

And the “average increase in nerve to non-nerve signal, fluorescence vs white light reflectance” value [3]?
Its value is 17%.

And the “time to almost complete wash out after systemic injection” value (sciatic nerve [4])?
The value was no more than 24 h.

Which “normalized average signal intensity” value (human sural nerve) does the source give for “PWEEPYYVVKKSS [HNP401-N-4, tested FAM labelled]” here?
Its value is 0.56±0.18.

With “PYYVVKKSS [HNP401-N-8, tested FAM labelled]” as the molecule, how does the “normalized average signal intensity” value (human sural nerve) read?
Its value is 0.98±0.31.

For “QVPWEEPYYVVKKSS [HNP401-N-2, tested FAM labelled]”, which “average signal intensity (nerve binding of deletion variants)” value (human sural nerve; 100 uM FAM labelled, human nerve sections, n=5) is on record?
Its value is 1498.73 (+/−517.63).

What about the “normalized average signal intensity” value (human sural nerve) of the same molecule?
Its value is 2.02±0.65.

What about the “Normalized nerve to temporalis muscle contrast, increase with respect to FAM-HNP401” value (human sural nerve; human sural nerve vs temporalis muscle) of the same molecule?
The value was 3 fold.

Which “effect of terminal deletion on binding” value (human sural nerve; removal of C-terminal serine) does the source give for SGQVPWEEPYYVVKK [tested FAM labelled] here?
Its value is “tolerated”.

For SHSSEFPRSWDMETN [HNP301], which “contrast for prostate nerve labeling compared to HNP401” value [5] is on record?
The value was “not showing as much contrast”.

For carboxyfluorescein [reference compound], which “binding / contrast among peptides and controls screened on human nerve” value (human sural nerve) is on record?
Its value is “only weak non-specific binding”.

What about the “binding / contrast among peptides and controls screened on human nerve” value (human sural nerve; listed as Carboxyfluorescein) of the same molecule?
Its value is “low signal and non-specific binding”.
